ChEMBL document CHEMBL1681651, “A broad spectrum anticancer nucleoside with selective toxicity against human colon cells in vitro” (2011)

Experiments:
Type in all cases: functional
SK-MEL-2 [1] = assay: Growth inhibition of human SK-MEL-2 cells assessed as cell growth at 1 mM after 48 hrs by SRB assay; details: SK-MEL-2, 48 h, read-out: Activity
OVCAR-3 = assay: Growth inhibition of human OVCAR3 cells assessed as cell growth at 10 uM after 48 hrs by SRB assay; details: OVCAR-3, 48 h, read-out: Activity
IGROV-1 = assay: Growth inhibition of human IGROV1 cells assessed as cell growth at 1 mM after 48 hrs by SRB assay; details: IGROV-1, 48 h, read-out: Activity
SK-MEL-2 [2] = assay: Growth inhibition of human SK-MEL-2 cells assessed as cell growth at 1 uM after 48 hrs by SRB assay; details: SK-MEL-2, 48 h, read-out: Activity
COLO 205 = assay: Growth inhibition of human COLO205 cells assessed as cell growth at 10 uM after 48 hrs by SRB assay; details: COLO 205, 48 h, read-out: Activity
MDA-MB-231 [3] = assay: Growth inhibition of human MDA-MB-231 cells assessed as cell growth at 1 uM after 48 hrs by SRB assay; details: MDA-MB-231, 48 h, read-out: Activity
KM12 = assay: Growth inhibition of human KM12 cells assessed as cell growth at 10 uM after 48 hrs by SRB assay; details: KM12, 48 h, read-out: Activity
UACC-62 [4] = assay: Growth inhibition of human UACC62 cells assessed as cell growth at 1 mM after 48 hrs by SRB assay; details: UACC-62, 48 h, read-out: Activity
UO-31 [5] = assay: Growth inhibition of human UO31 cells after 48 hrs by […] growth inhibition assay; details: UO-31, 48 h
SK-OV-3 = assay: Growth inhibition of human SKOV3 cells assessed as cell growth at 1 mM after 48 hrs by SRB assay; details: SK-OV-3, 48 h, read-out: Activity
MDA-MB-231 [6] = assay: Growth inhibition of human MDA-MB-231 cells assessed as cell growth at 10 uM after 48 hrs by SRB assay; details: MDA-MB-231, 48 h, read-out: Activity
UACC-257 [7] = assay: Growth inhibition of human UACC257 cells assessed as cell growth at 10 uM after 48 hrs by SRB assay; details: UACC-257, 48 h, read-out: Activity
NCI-H460 = assay: Growth inhibition of human NCI-H460 cells assessed as cell growth at 10 uM after 48 hrs by SRB assay; details: NCI-H460, 48 h, read-out: Activity
RXF 393 [8] = assay: Growth inhibition of human RXF393 cells after 48 hrs by […] growth inhibition assay; details: RXF 393, 48 h
A549 = assay: Growth inhibition of human A549 cells assessed as cell growth at 1 uM after 48 hrs by SRB assay; details: A549, 48 h, read-out: Activity
HCC 2998 = assay: Growth inhibition of human HCC2998 cells assessed as cell growth at 10 uM after 48 hrs by SRB assay; details: HCC 2998, 48 h, read-out: Activity
SF-268 = assay: Growth inhibition of human SF268 cells assessed as cell growth at 0.1 uM after 48 hrs by SRB assay; details: SF-268, 48 h, read-out: Activity
SK-MEL-2 [9] = assay: Growth inhibition of human SK-MEL-2 cells assessed as cell growth at 100 uM after 48 hrs by SRB assay; details: SK-MEL-2, 48 h, read-out: Activity
SNB-75 [10] = assay: Growth inhibition of human SNB75 cells after 48 hrs by […] growth inhibition assay; details: SNB-75, 48 h
OVCAR-5 = assay: Growth inhibition of human OVCAR5 cells assessed as cell growth at 0.1 uM after 48 hrs by SRB assay; details: OVCAR-5, 48 h, read-out: Activity
UO-31 [11] = assay: Growth inhibition of human UO31 cells assessed as cell growth at 10 uM after 48 hrs by SRB assay; details: UO-31, 48 h, read-out: Activity
NCI-H226 = assay: Growth inhibition of human NCI-H226 cells assessed as cell growth at 1 uM after 48 hrs by SRB assay; details: NCI-H226, 48 h, read-out: Activity
HCT-15 = assay: Growth inhibition of human HCT15 cells assessed as cell growth at 10 uM after 48 hrs by SRB assay; details: HCT-15, 48 h, read-out: Activity
HOP-62 = assay: Growth inhibition of human HOP62 cells assessed as cell growth at 10 uM after 48 hrs by SRB assay; details: HOP-62, 48 h, read-out: Activity
RXF 393 [12] = assay: Growth inhibition of human RXF393 cells assessed as cell growth at 100 uM after 48 hrs by SRB assay; details: RXF 393, 48 h, read-out: Activity
UACC-257 [13] = assay: Growth inhibition of human UACC257 cells assessed as cell growth at 0.1 uM after 48 hrs by SRB assay; details: UACC-257, 48 h, read-out: Activity
OVCAR-4 = assay: Growth inhibition of human OVCAR4 cells assessed as cell growth at 0.1 uM after 48 hrs by SRB assay; details: OVCAR-4, 48 h, read-out: Activity
SN12C = assay: Growth inhibition of human SN12C cells assessed as cell growth at 10 uM after 48 hrs by SRB assay; details: read-out: Activity
M14 = assay: Growth inhibition of human M14 cells assessed as cell growth at 1 mM after 48 hrs by SRB assay; details: M14, 48 h, read-out: Activity
BT-549 = assay: Growth inhibition of human BT549 cells after 48 hrs by […] growth inhibition assay; details: BT-549, 48 h
UACC-62 [14] = assay: Growth inhibition of human UACC62 cells assessed as cell growth at 1 uM after 48 hrs by SRB assay; details: UACC-62, 48 h, read-out: Activity
SNB-75 [15] = assay: Growth inhibition of human SNB75 cells assessed as cell growth at 10 uM after 48 hrs by SRB assay; details: SNB-75, 48 h, read-out: Activity
[16] = Growth inhibition of human Hs 578T cells assessed as cell growth at 10 uM after 48 hrs by SRB assay; details: read-out: Activity
SK-MEL-28 = assay: Growth inhibition of human SK-MEL-28 cells assessed as cell growth at 10 uM after 48 hrs by SRB assay; details: SK-MEL-28, 48 h, read-out: Activity
[17] = read-out: LC50 (the source's name)
[18] = read-out: pLC50 (the source's name) (converted)

CNC(=O)NC[C@H]1O[C@@H](n2cnc3c(NC(=O)Nc4ccccc4)ncnc32)[C@H](O[Si](C)(C)C(C)(C)C)[C@@H]1O[Si](C)(C)C(C)(C)C showed a growth at 1000 µM (SK-MEL-2 [1]) of -67%, a growth at 10 µM (OVCAR-3) of 113% and a growth at 1000 µM (IGROV-1) of -39%. The growth at 1 µM (SK-MEL-2 [2]) was 110%, the growth at 10 µM (COLO 205) was 105% and the growth at 1 µM (MDA-MB-231 [3]) was 109%. For the same molecule, the growth at 10 µM (KM12) was 107%, the growth at 1000 µM (UACC-62 [4]) was -39% and the GI50 (UO-31 [5]; read-out: GI50) was 2.5 µM. It also gave a CC50 (UO-31 [5]; [17]) of over 100 µM, a TGI (UO-31 [5]; read-out: TGI) of 9.56 µM and a GI50 (UO-31 [5]; read-out: pGI50 (converted)) of 2.51 µM. For the same molecule, the CC50 (UO-31 [5]; [18]) was over 100 µM, the TGI (UO-31 [5]; read-out: pTGI (converted)) was 9.55 µM and the growth at 1000 µM (SK-OV-3) was 8%. For the same molecule, the growth at 10 µM (MDA-MB-231 [6]) was 106%, the growth at 10 µM (UACC-257 [7]) was 104% and the growth at 10 µM (NCI-H460) was 88%. For the same molecule, the GI50 (RXF 393 [8]; read-out: GI50) was 2.14 µM, the CC50 (RXF 393 [8]; [17]) was 7.5 µM and the TGI (RXF 393 [8]; read-out: TGI) was 4.01 µM. For the same molecule, the GI50 (RXF 393 [8]; read-out: pGI50 (converted)) was 2.14 µM, the CC50 (RXF 393 [8]; [18]) was 7.41 µM and the TGI (RXF 393 [8]; read-out: pTGI (converted)) was 3.98 µM. The growth at 1 µM (A549) was 98%, the growth at 10 µM (HCC 2998) was 106% and the growth at 0.1 µM (SF-268) was 104%. The growth at 100 µM (SK-MEL-2 [9]) was -36%, the GI50 (SNB-75 [10]; read-out: GI50) was 2.43 µM and the CC50 (SNB-75 [10]; [17]) was over 100 µM. For the same molecule, the TGI (SNB-75 [10]; read-out: TGI) was 34.1 µM, the GI50 (SNB-75 [10]; read-out: pGI50 (converted)) was 2.45 µM and the CC50 (SNB-75 [10]; [18]) was over 100 µM. For the same molecule, the TGI (SNB-75 [10]; read-out: pTGI (converted)) was 33.9 µM, the growth at 0.1 µM (OVCAR-5) was 96% and the growth at 10 µM (UO-31 [11]) was 84%. The growth at 1 µM (NCI-H226) was 106%, the growth at 10 µM (HCT-15) was 100% and the growth at 10 µM (HOP-62) was 105%. It also gave a growth at 100 µM (RXF 393 [12]) of -73%, a growth at 0.1 µM (UACC-257 [13]) of 97% and a growth at 0.1 µM (OVCAR-4) of 106%. It also gave a growth at 10 µM (SN12C) of 98%, a growth at 1000 µM (M14) of -52% and a GI50 (BT-549; read-out: GI50) of 2.94 µM. For the same molecule, the CC50 (BT-549; [17]) was over 100 µM, the TGI (BT-549; read-out: TGI) was 8.18 µM and the GI50 (BT-549; read-out: pGI50 (converted)) was 2.95 µM. For the same molecule, the CC50 (BT-549; [18]) was over 100 µM, the TGI (BT-549; read-out: pTGI (converted)) was 8.13 µM and the growth at 1 µM (UACC-62 [14]) was 100%. The growth at 10 µM (SNB-75 [15]) was 73%.
Molecule CNC(=O)OC[C@H]1O[C@@H](n2cnc3c(NC(=O)Nc4ccccc4)ncnc32)[C@H](O[Si](C)(C)C(C)(C)C)[C@@H]1O[Si](C)(C)C(C)(C)C has a growth at 10 µM (OVCAR-3) of 107%, a growth at 10 µM (COLO 205) of 106% and a growth at 10 µM (KM12) of 110%. The growth at 10 µM (MDA-MB-231 [6]) was 110%, the growth at 10 µM (NCI-H460) was 103% and the growth at 10 µM [16] was 97.6%. For the same molecule, the growth at 10 µM (SK-MEL-28) was 102%, the growth at 10 µM (UO-31 [11]) was 106% and the growth at 10 µM (HCT-15) was 103%. It also gave a growth at 10 µM (HOP-62) of 104%, a growth at 10 µM (SN12C) of 101% and a growth at 10 µM (SNB-75 [15]) of 76.6%.
